This note sets out measurements from patent publication US20090221642A1, “MUSCARINIC RECEPTOR AGONISTS, COMPOSITIONS, METHODS OF TREATMENT THEREOF, AND PROCESSES FOR PREPARATION THEREOF-176” (AstraZeneca AB, priority 2008, published 2009).

One may read the EC50 as the midpoint of the concentration-response curve.

Molecules are shown by their SMILES.

The target of the test is T1, hM1 (human Muscarinic receptor subtype 1) (Homo sapiens, UniProt P11229).
T1 construct: expressed in transfected cells; host or cells: CHO cells (Chinese hamster ovary cells, ATCC)
T1 sequence (P11229 1-460): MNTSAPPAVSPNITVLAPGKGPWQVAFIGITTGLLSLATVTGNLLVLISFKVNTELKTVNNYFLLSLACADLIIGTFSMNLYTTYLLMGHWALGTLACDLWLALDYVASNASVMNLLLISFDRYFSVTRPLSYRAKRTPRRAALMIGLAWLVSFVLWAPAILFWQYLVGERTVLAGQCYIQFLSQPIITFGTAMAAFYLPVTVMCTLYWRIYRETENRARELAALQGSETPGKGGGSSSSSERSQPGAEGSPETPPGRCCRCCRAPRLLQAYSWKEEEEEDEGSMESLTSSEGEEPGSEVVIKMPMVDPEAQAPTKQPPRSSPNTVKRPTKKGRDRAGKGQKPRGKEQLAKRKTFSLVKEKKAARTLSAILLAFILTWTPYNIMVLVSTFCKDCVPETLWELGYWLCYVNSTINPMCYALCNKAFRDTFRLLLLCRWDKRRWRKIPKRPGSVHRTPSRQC
The test can be described thus: Human M1 calcium mobilization FLIPR assay. It is filed as cell-based. The note with it: hM1 expressed in CHO cells, intracellular Ca2+ release, read-out: hM1 EC50. As for the experimental part: Human M1, rat M1, human M3 and human M5 Calcium Mobilization FLIPR™ Assay
The compound activity in the present invention (EC50 or IC50) is measured using a 384 plate-based imaging assay that monitors drug induced intracellular Ca^2+ release in whole cells. Activation of hM1 (human Muscarinic receptor subtype 1, gene bank access NM_000738), rM1 (rat Muscarinic receptor subtype 1, gene bank access NM_080773), hM3 (human Muscarinic receptor subtype 3, gene bank access NM_000740NM_000740) and hM5 (human Muscarinic receptor subtype 5, gene bank access NM_0121258), receptors expressed in CHO cells (Chinese hamster ovary cells, ATCC) is quantified in a Molecular Devices FLIPR II™ instrument as an increase in fluorescent signal. Inhibition of hM3 and hM5 by compounds is determined by the decrease in fluorescent signal in response to 2 nM acetylcholine activation.
Prior to experiment, the cell culture medium is removed from the plates by inversion. […] Plates are incubated at 37° C. for 60 minutes prior to start the experiment. The incubation is terminated by washing the cells four times in assay buffer, leaving a residual 25 μl buffer per well. Cell plates are then transferred to the FLIPR, ready for compound additions.
The day of experiment, acetylcholine and compounds are diluted in assay buffer in three-fold concentration range (10 points serial dilution) for addition by FLIPR instrument. For all calcium assays, a baseline reading is taken for 10 seconds followed by the addition of 12.5 μl of compounds, resulting in a total well volume of 37.5 μl. Data is collected every second for 60 pictures and then every 6 seconds for 20 pictures prior to the addition of agonist. For hM3 and hM5, before agonist addition, a second baseline reading is taken for 10 seconds followed by the addition of 12.5 μl of agonist or buffer, producing a final volume of 50 μl. After agonist stimulation, the FLIPR continues to collect data every second for 60 pictures and then every 6 seconds for 20 pictures. The fluorescence emission is read using filter 1 (emission 510-570 nm) by the FLIPR on board CCD camera.
Calcium mobilization output data are calculated as the maximal relative fluorescence unit (RFU) minus the minimal value for both compound and agonist reading frame (except for hM1 and rM1 using only the maximal RFU). Data are analyzed using sigmoidal fits of a non-linear curve-fitting program (XLfit version 4.2.2 Excel add-in version 4.2.2 build 18 math 1Q version 2.1.2 build 18). All pEC50 and plC50 values are reported as arithmetic means ±standard error of mean of ‘n’ independent experiments.

Turning to `COC(=O)N1CCC(C)(N2CCC(N3C(=O)Cc4cc(F)ccc43)CC2)C1` (racemic) [Example 78, methyl 3-(4-(5-fluoro-2-oxoindolin-1-yl)piperidin-1-yl)-3-methylpyrrolidine-1-carboxylate], the 50% effective concentration (EC50) was found to be 76.2 nM. In the case of `CCOC(=O)N1CCC(C)(N2CCC(n3c(=O)[nH]c4cc(C)ccc43)CC2)C1` (single isomer, unassigned) [Example 13, ethyl 3-methyl-3-(4-(5-methyl-2-oxo-2,3-dihydro-1H-benzo[d]imidazol-1-yl)piperidin-1-yl)pyrrolidine-1-carboxylate], the concentration giving a half-maximal response (EC50) is 70.1 nM. Under `CC#CCOC(=O)N1CCC(C)(N2CCC(n3c(=O)[nH]c4ccc(C)cc43)CC2)C1` (single isomer, unassigned) [Example 18, but-2-ynyl 3-methyl-3-(4-(6-methyl-2-oxo-2,3-dihydro-1H-benzo[d]imidazol-1-yl)piperidin-1-yl)pyrrolidine-1-carboxylate] stands 158 nM; under `CC#CCOC(=O)N1CCC(C)(N2CCC(n3c(=O)[nH]c4cc(C)ccc43)CC2)C1` (single isomer, unassigned) [Example 19, but-2-ynyl 3-methyl-3-(4-(5-methyl-2-oxo-2,3-dihydro-1H-benzo[d]imidazol-1-yl)piperidin-1-yl)pyrrolidine-1-carboxylate], 324 nM; under `Cc1ccc2c(c1)[nH]c(=O)n2C1CCN(C2(C)CCN(C(=O)OCCF)C2)CC1` (single isomer, unassigned) [Example 29, 2-fluoroethyl 3-methyl-3-(4-(5-methyl-2-oxo-2,3-dihydro-1H-benzo[d]imidazol-1-yl)piperidin-1-yl)pyrrolidine-1-carboxylate], 166 nM. For the molecule `COC(=O)N1CCC(C)(N2CCC(n3c(=O)[nH]c4ccccc43)CC2)C1` (single isomer, unassigned) [Example 30, methyl 3-methyl-3-(4-(2-oxo-2,3-dihydro-1H-benzo[d]imidazol-1-yl)piperidin-1-yl)pyrrolidine-1-carboxylate], the concentration giving a half-maximal response (EC50) is 108 nM. Turning to `CC#CCOC(=O)N1CCC(C)(N2CCC(n3c(=O)[nH]c4cc(F)ccc43)CC2)C1` (single isomer, unassigned) [Example 35, but-2-ynyl 3-(4-(5-fluoro-2-oxo-2,3-dihydro-1H-benzo[d]imidazol-1-yl)piperidin-1-yl)-3-methylpyrrolidine-1-carboxylate], the EC50 was determined as 56.9 nM. With `COC(=O)N1CCC(C)(N2CCC(n3c(=O)[nH]c4cc(F)ccc43)CC2)C1` (single isomer, unassigned) [Example 37, methyl 3-(4-(5-fluoro-2-oxo-2,3-dihydro-1H-benzo[d]imidazol-1-yl)piperidin-1-yl)-3-methylpyrrolidine-1-carboxylate], the EC50 stood at 76.5 nM. Under `CC1(N2CCC(n3c(=O)[nH]c4cc(F)ccc43)CC2)CCN(C(=O)OCCF)C1` (single isomer, unassigned) [Example 38, 2-fluoroethyl 3-(4-(5-fluoro-2-oxo-2,3-dihydro-1H-benzo[d]imidazol-1-yl)piperidin-1-yl)-3-methylpyrrolidine-1-carboxylate] stands 112 nM; under `C#CCOC(=O)N1CCC(C)(N2CCC(n3c(=O)[nH]c4cc(C)ccc43)CC2)C1` (single isomer, unassigned) [Example 42, prop-2-ynyl 3-methyl-3-(4-(5-methyl-2-oxo-2,3-dihydro-1H-benzo[d]imidazol-1-yl)piperidin-1-yl)pyrrolidine-1-carboxylate], 235 nM; under `COC(=O)N1CCC(C)(N2CCC(n3c(=O)[nH]c4cc(C)ccc43)CC2)C1` (single isomer, unassigned) [Example 46, methyl 3-methyl-3-(4-(5-methyl-2-oxo-2,3-dihydro-1H-benzo[d]imidazol-1-yl)piperidin-1-yl)pyrrolidine-1-carboxylate], 132 nM.

On to `COC(=O)N1CCC(C)(N2CCC(n3c(=O)[nH]c4ccc(F)cc43)CC2)C1` (single isomer, unassigned) [Example 51, methyl 3-(4-(6-fluoro-2-oxo-2,3-dihydro-1H-benzo[d]imidazol-1-yl)piperidin-1-yl)-3-methylpyrrolidine-1-carboxylate], for which the concentration for a half-maximal effect (EC50) came to 57.1 nM. Turning to `CC1(N2CCC(n3c(=O)[nH]c4ccc(F)cc43)CC2)CCN(C(=O)OCCF)C1` (single isomer, unassigned) [Example 54, 2-fluoroethyl 3-(4-(6-fluoro-2-oxo-2,3-dihydro-1H-benzo[d]imidazol-1-yl)piperidin-1-yl)-3-methylpyrrolidine-1-carboxylate], the EC50 was 92.8 nM. Under `COC(=O)N1CCC(C)(N2CCC(n3c(=O)[nH]c4cc(F)c(F)cc43)CC2)C1` (single isomer, unassigned) [Example 59, methyl 3-(4-(5,6-difluoro-2-oxo-2,3-dihydro-1H-benzo[d]imidazol-1-yl)piperidin-1-yl)-3-methylpyrrolidine-1-carboxylate] stands 77.6 nM; under `CC1(N2CCC(n3c(=O)[nH]c4cc(F)c(F)cc43)CC2)CCN(C(=O)OCCF)C1` (single isomer, unassigned) [Example 62, 2-fluoroethyl 3-(4-(5,6-difluoro-2-oxo-2,3-dihydro-1H-benzo[d]imidazol-1-yl)piperidin-1-yl)-3-methylpyrrolidine-1-carboxylate], 79.8 nM; under `CCCOC(=O)N1CCC(C)(N2CCC(n3c(=O)[nH]c4ccc(F)cc43)CC2)C1` (single isomer, unassigned) [Example 63, propyl 3-(4-(6-fluoro-2-oxo-2,3-dihydro-1H-benzo[d]imidazol-1-yl)piperidin-1-yl)-3-methylpyrrolidine-1-carboxylate], 344 nM. Under `CCCOC(=O)N1CCC(C)(N2CCC(n3c(=O)[nH]c4ccc(F)cc43)CC2)C1` (single isomer, unassigned) [Example 64, propyl 3-(4-(6-fluoro-2-oxo-2,3-dihydro-1H-benzo[d]imidazol-1-yl)piperidin-1-yl)-3-methylpyrrolidine-1-carboxylate] stands 80.1 nM. With `CC(C)OC(=O)N1CCC(C)(N2CCC(n3c(=O)[nH]c4ccc(F)cc43)CC2)C1` (single isomer, unassigned) [Example 65, isopropyl 3-(4-(6-fluoro-2-oxo-2,3-dihydro-1H-benzo[d]imidazol-1-yl)piperidin-1-yl)-3-methylpyrrolidine-1-carboxylate], the concentration giving a half-maximal response (EC50) was determined as 104 nM. Take `CC(C)OC(=O)N1CCC(C)(N2CCC(n3c(=O)[nH]c4ccc(F)cc43)CC2)C1` (single isomer, unassigned) [Example 66, isopropyl 3-(4-(6-fluoro-2-oxo-2,3-dihydro-1H-benzo[d]imidazol-1-yl)piperidin-1-yl)-3-methylpyrrolidine-1-carboxylate]: the EC50 amounted to 50.2 nM. With `COC(=O)N1CCC(C)(N2CCC(N3C(=O)Cc4ccc(F)cc43)CC2)C1` (single isomer, unassigned) [Example 77, methyl 3-(4-(6-fluoro-2-oxoindolin-1-yl)piperidin-1-yl)-3-methylpyrrolidine-1-carboxylate], the concentration for a half-maximal effect (EC50) was 94.5 nM.

As for `CC(C)OC(=O)N1CCC(C)(N2CCC(n3c(=O)[nH]c4ccccc43)CC2)C1` (stereo not shown) [Example 3, isopropyl 3-methyl-3-(4-(2-oxo-2,3-dihydro-1H-benzo[d]imidazol-1-yl)piperidin-1-yl)pyrrolidine-1-carboxylate], the EC50 was 108 nM. Under `CC(C)OC(=O)N1CCC(C)(N2CCC(n3c(=O)[nH]c4cc(F)ccc43)CC2)C1` (stereo not shown) [Example 9, isopropyl 3-(4-(5-fluoro-2-oxo-2,3-dihydro-1H-benzo[d]imidazol-1-yl)piperidin-1-yl)-3-methylpyrrolidine-1-carboxylate] stands 124 nM.
